Data as given in PubChem BioAssay AID2060622 (Molecular Pharmacology Branch, DTP, NCI, 2025).

Tested on: 242566-281-R-J2-PDC complex spheroid viability
Assay: Anticancer human tumor 242566-281-R-J2-PDC patient-derived pancreatic carcinoma cell line growth inhibition [CLK]
Details: for IC50: curve of first compound; for viability, T/C: stronger effect = lower value
Outline: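 Multi-cell-type spheroids combined patient-derived tumor cells with HUVEC endothelial cells and human mesenchymal stem cells. Paired agents were dosed in half-log steps down from about clinical Cmax, or from 10 microM where Cmax was unknown.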
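Further: spheroids exposed to compounds for 7 days before readout.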
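Wherever viability, T/C is given: 100% = DMSO vehicle control wells.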

## CC1COCCN1c1cc(C2(S(C)(=N)=O)CC2)nc(-c2ccnc3[nH]ccc23)n1 (configuration not stated) + CN1CCN(c2cc(C(=O)Nc3cc4cc(-c5cnn(C)c5)ccc4cn3)ccn2)CC1
Second compound 0.0316 µM
  IC50: 6190 nM
Second compound 0.1 µM
  IC50: 4500 nM
Second compound 0.316 µM
  IC50: < 31.6 nM
Second compound 1 µM
  IC50: < 31.6 nM
Second compound 3.16 µM
  IC50: < 31.6 nM
Second compound 10 µM
  IC50: < 31.6 nM
Second compound 0.0316 µM, first compound 0.0316 µM
  viability, T/C: 119%
Second compound 0.0316 µM, first compound 0.1 µM
  viability, T/C: 103%
Second compound 0.0316 µM, first compound 0.316 µM
  viability, T/C: 97%
Second compound 0.0316 µM, first compound 1 µM
  viability, T/C: 104%
Second compound 0.0316 µM, first compound 3.16 µM
  viability, T/C: 73.8%
Second compound 0.0316 µM, first compound 10 µM
  viability, T/C: 31.6%
Second compound 0.1 µM, first compound 0.0316 µM
  viability, T/C: 103%
Second compound 0.1 µM, first compound 0.1 µM
  viability, T/C: 97.8%
Second compound 0.1 µM, first compound 0.316 µM
  viability, T/C: 97.3%
Second compound 0.1 µM, first compound 1 µM
  viability, T/C: 83.1%
Second compound 0.1 µM, first compound 3.16 µM
  viability, T/C: 62.6%
Second compound 0.1 µM, first compound 10 µM
  viability, T/C: 22.6%
Second compound 0.316 µM, first compound 0.0316 µM
  viability, T/C: 36.3%
Second compound 0.316 µM, first compound 0.1 µM
  viability, T/C: 28.3%
Second compound 0.316 µM, first compound 0.316 µM
  viability, T/C: 31.2%
Second compound 0.316 µM, first compound 1 µM
  viability, T/C: 20.4%
Second compound 0.316 µM, first compound 3.16 µM
  viability, T/C: 17.5%
Second compound 0.316 µM, first compound 10 µM
  viability, T/C: 8.72%
Second compound 1 µM, first compound 0.0316 µM
  viability, T/C: 4.95%
Second compound 1 µM, first compound 0.1 µM
  viability, T/C: 4.97%
Second compound 1 µM, first compound 0.316 µM
  viability, T/C: 4.82%
Second compound 1 µM, first compound 1 µM
  viability, T/C: 5.18%
Second compound 1 µM, first compound 3.16 µM
  viability, T/C: 5.87%
Second compound 1 µM, first compound 10 µM
  viability, T/C: 6.94%
Second compound 3.16 µM, first compound 0.0316 µM
  viability, T/C: 7.02%
Second compound 3.16 µM, first compound 0.1 µM
  viability, T/C: 7.62%
Second compound 3.16 µM, first compound 0.316 µM
  viability, T/C: 8.37%
Second compound 3.16 µM, first compound 1 µM
  viability, T/C: 7.12%
Second compound 3.16 µM, first compound 3.16 µM
  viability, T/C: 8.01%
Second compound 3.16 µM, first compound 10 µM
  viability, T/C: 9.37%
Second compound 10 µM, first compound 0.0316 µM
  viability, T/C: 2.02%
Second compound 10 µM, first compound 0.1 µM
  viability, T/C: 1.85%
Second compound 10 µM, first compound 0.316 µM
  viability, T/C: 2.1%
Second compound 10 µM, first compound 1 µM
  viability, T/C: 1.7%
Second compound 10 µM, first compound 3.16 µM
  viability, T/C: 1.8%
Second compound 10 µM, first compound 10 µM
  viability, T/C: 1.35%
